Holding throughout (assay): DTP human tumour cell line panel, 48 h
Experiment [1] has as its system TK-10 renal.
The subject of experiment [2] is OVCAR-3 ovarian.
Experiment [3] relates to HL-60(TB) leukemia.
In experiment [4] the test system is MDA-MB-231 breast.
Experiment [5] relates to MALME-3M melanoma.
For experiment [6], the system named is NCI-H522 lung.
Experiment [7] relates to SF-295 CNS.
Experiment [8] relates to MDA-MB-435.
The test system of experiment [9] is 786-0 renal.

Molecules are shown by their SMILES.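 Step 1: Grow cells in 96-well plates. Step 2: Expose to compound for 48 hours at 5 concentrations. Step 3: Interpolate endpoints linearly; if unreached, use highest concentration. GI50 is the concentration that inhibits growth by half. TGI marks complete inhibition of growth.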

In general, GI50 refers to the concentration giving 50% growth inhibition. As a reminder, the TGI is the concentration giving total growth inhibition. For the molecule `C=C(C)[C@@H]1CC[C@]2(C(=O)O)CC[C@]3(C)[C@H](CC[C@@H]4[C@@]5(C)CCC(NC(=O)c6cccc(OC(C)=O)c6OC(C)=O)C(C)(C)[C@@H]5CC[C@]43C)[C@@H]12` (some centres not stated), the GI50 is 0.656 µM in experiment [1]; 1.04 µM in experiment [2]; 1.27 µM in experiment [3]; 1.09 µM in experiment [4]; 0.317 µM in experiment [5]; 0.371 µM in [6]. The GI50 was 0.562 µM in [7], 0.382 µM in [8] and 0.661 µM in experiment [9]. The total growth inhibition concentration (TGI) was more than 100 µM in experiment [1]; 3.26 µM in experiment [2]; 4.52 µM in [3]; 3.88 µM in experiment [4]; 1.47 µM in [5]; 1.62 µM in [6]. Further, the TGI in experiment [7] stood at 3.89 µM; in [8] it was 1.61 µM; in experiment [9], 3.47 µM.
As for `O=C(c1ccccc1)c1c(-c2ccccc2)sc2nc3ccccc3nc12`, the concentration for total growth inhibition (TGI) in experiment [1], in experiment [2], in experiment [3], in [5], in experiment [6] and in experiment [7] was more than 100 µM in each case. In addition, in [9], the TGI was more than 100 µM.
Regarding `CC(=O)c1cccc(C)c1C(=O)O`, the concentration for total growth inhibition (TGI) in [1], in experiment [2], in [3], in experiment [5], in experiment [6] and in experiment [7] was more than 100 µM throughout. In experiment [9], this molecule showed a TGI of more than 100 µM.
Regarding `CCOC(=O)/C(=C\c1ccc(N(CCC#N)CCC#N)cc1)NC(=O)c1cc([N+](=O)[O-])ccc1Cl`, the TGI in experiment [1], in [2], in experiment [3], in [5], in [6] and in [7] was more than 100 µM each time. This molecule gave a concentration for total growth inhibition (TGI) in [9] of more than 100 µM.
As to `COc1cc(OC)c(SSCCCCS(=O)O)c(OC)c1`, the TGI in experiment [1] stood at 42.9 µM; in experiment [2] it was 28.6 µM; in experiment [3], 24.8 µM; in experiment [5] it was 31 µM; in experiment [6] it was 21.1 µM; in experiment [7] it was 26.8 µM. For the same molecule, the concentration for total growth inhibition (TGI) in experiment [9] worked out at 35.4 µM.
In the case of `CC(=O)OC1CCn2nnc(CO)c21` (configuration not stated), the TGI in experiment [1], in [2], in [5], in experiment [6], in [7] and in experiment [9] was more than 100 µM each time.
For the molecule `CC(=O)CC(N)=O`, the total growth inhibition concentration (TGI) in experiment [1], in [2], in [3], in [5], in experiment [6] and in experiment [7] was more than 100 µM in each case. The concentration for total growth inhibition (TGI) in experiment [9] was more than 100 µM.
Consider `CC1=C(C(=O)Nc2cc(=O)n(C)c(=O)n2C)C(c2cccc([N+](=O)[O-])c2)C(C(=O)Nc2cc(=O)n(C)c(=O)n2C)=C(C)N1`, for which the concentration for total growth inhibition (TGI) in experiment [1], in experiment [2], in [3], in experiment [5], in [6] and in experiment [7] was more than 100 µM in each case. Besides, in experiment [9], the total growth inhibition concentration (TGI) is more than 100 µM.
Regarding `CN1CC(=O)N(C)c2ncn(Cc3ccccc3)c2C1=O`, the total growth inhibition concentration (TGI) in experiment [1], in experiment [2], in [3], in experiment [5], in experiment [7] and in [9] was more than 100 µM throughout.
Regarding `c1ccc2c(NCCCCCCNc3c4ccccc4nc4ccccc34)c3ccccc3nc2c1`, the TGI in experiment [1] was found to be 4.9 µM; in experiment [2], 2.21 µM; in [4] it was 2.05 µM; in experiment [5], 2.49 µM; in [6], 1.66 µM; in experiment [7], 2.18 µM. Besides, the TGI amounted to 2.27 µM in experiment [8] and 2.08 µM in [9].
Regarding `C=C(C#N)C1OCC2OC(C)(C)OC21` (configuration not stated), the TGI was 58.5 µM in experiment [1]; 46 µM in experiment [2]; 43 µM in experiment [3]; more than 100 µM in experiment [7]; 39.4 µM in [9].
Take `Cc1cccc(C)c1CO`: the TGI in experiment [2], in [3], in experiment [5], in experiment [6], in [7] and in experiment [9] was more than 100 µM in each case.
Regarding `CC(C)[O-].CC(C)[O-].O=C1C=C([O-])C(=O)c2ccccc21.O=C1C=C([O-])C(=O)c2ccccc21.[Ti+4]`, the GI50 in experiment [1] is more than 100 µM; in experiment [2], more than 70.5 µM; in [3] it was 17.4 µM; in experiment [5], 14.7 µM; in [6] it was 39.9 µM; in [7], 28.1 µM. Moreover, the GI50 in experiment [9] was more than 86.4 µM. For the same molecule, the TGI in [1], in [2], in [3], in experiment [5], in [6] and in experiment [7] was more than 100 µM in each case. Moreover, in [9], the TGI was more than 100 µM.
For `O=C(CCc1nnc2s/c(=C\c3ccc(Cl)c(Cl)c3)c(=O)n12)Nc1ccc(Cl)c(Cl)c1`, the TGI in [1] was more than 100 µM; in experiment [2] it was more than 100 µM; in experiment [3], 64 µM; in experiment [5] it was more than 100 µM; in [6] it was 65.3 µM; in experiment [7] it was more than 100 µM. This molecule also returned a total growth inhibition concentration (TGI) in experiment [9] of more than 100 µM.
On to `CC(=O)[CH-]C(=O)c1ccccc1.CC(=O)[CH-]C(=O)c1ccccc1.CC(C)CCCC(C)[C@H]1CCC2[C@@H]3CC=C4C[C@@H]([O-])CC[C@]4(C)C3CC[C@@]21C.CC(C)CCCC(C)[C@H]1CCC2[C@@H]3CC=C4C[C@@H]([O-])CC[C@]4(C)C3CC[C@@]21C.[Ti+4]` (some centres not stated), for which the GI50 in experiment [1], in experiment [2], in experiment [6] and in experiment [9] was more than 100 µM in each case. For the same molecule, the TGI in [1], in experiment [2], in experiment [6] and in experiment [9] was more than 100 µM throughout.
On to `COc1ccc(NC(=O)CC/C(CC(=O)C(C)(C)C)=N\NC(=O)C(=O)NN)cc1`, for which the TGI in [1], in experiment [2], in [3], in [5], in experiment [6] and in [7] was more than 100 µM in each case. In [9], this molecule gave a TGI of more than 100 µM.

The values above are taken from PubChem BioAssay (NCI).
